# Reference: ChEMBL document CHEMBL4689842, “EUbOPEN Chemogenomics Library wave 1” (2021)
# Columns and labels:
# Format in all cases: toxicity, cell-based
# [1] = system: HEK-293T; test: Incucyte cell viability with HEK293T; settings: human, 10 µM, compound concentration 10 uM
# [2] = system: U2OS; test: Incucyte cell viability with U2OS; settings: human, 10 µM, compound concentration 10 uM
# [3] = system: Fibroblast; test: Incucyte cell viability with human fibroblast; settings: 10 µM, compound concentration 10 uM
# [4] = 0 h, replicate number 1, timepoint 0 hours
# [5] = 6 h, replicate number 1, timepoint 6 hours
# [6] = 12 h, replicate number 1, timepoint 12 hours
# [7] = 18 h, replicate number 1, timepoint 18 hours
# [8] = 24 h, replicate number 1, timepoint 24 hours
# [9] = 6 h, replicate number 2, timepoint 6 hours
# [10] = 18 h, replicate number 2, timepoint 18 hours
# [11] = 0 h, replicate number 2, timepoint 0 hours
# [12] = 12 h, replicate number 2, timepoint 12 hours
# [13] = 24 h, replicate number 2, timepoint 24 hours
# Also: filed as whole numbers so only -1 and 0 and 1 occur.
SMILES,"Growth Rate [1, 4]","Growth Rate [1, 5]","Growth Rate [1, 6]","Growth Rate [1, 7]","Growth Rate [1, 8]","Growth Rate [2, 4]","Growth Rate [2, 9]","Growth Rate [2, 6]","Growth Rate [2, 7]","Growth Rate [2, 8]","Growth Rate [3, 4]","Growth Rate [3, 10]","Growth Rate [3, 8]","Growth Rate [1, 11]","Growth Rate [1, 9]","Growth Rate [2, 12]","Growth Rate [2, 10]","Growth Rate [3, 5]","Growth Rate [3, 6]","Growth Rate [3, 7]",further results
NC(CCP(=O)(O)O)C(=O)O (racemic),0,1,1,1,1,0,0,1,1,1,0,1,1,–,–,–,–,–,–,–,–
CN(C)C(=O)c1cc2cnc(Nc3ccc(N4CCNCC4)cn3)nc2n1C1CCCC1 [RIBOCICLIB],0,1,–,1,1,0,1,0,0,0,0,1,1,1,0,1,1,–,–,–,"Growth Rate [1, 12]: 0; Growth Rate [1, 10]: 0; Growth Rate [1, 13]: 0; Growth Rate [2, 5]: 0; Growth Rate [2, 13]: 1; Growth Rate [3, 9]: 0; Growth Rate [3, 12]: 0"
Cc1nnn(-c2ccc(-c3ccc(C4(C(=O)O)CC4)cc3)cc2)c1NC(=O)O[C@H](C)c1ccccc1,0,0,0,0,0,0,–,1,1,1,0,–,–,–,–,–,–,–,–,–,"Growth Rate [1, 12]: 1; Growth Rate [1, 10]: 1"
CC1(C)C(=O)C(C)(C)c2cc(C(=O)Nc3ccc(C(=O)O)cc3)ccc21,0,–,1,1,1,0,1,0,1,1,0,1,0,–,1,1,–,0,0,0,"Growth Rate [3, 11]: 1"
CC1(C)CCC(C)(C)c2cc(NC(=O)c3ccc(C(=O)O)cc3)ccc21 [TAMIBAROTENE],0,1,1,1,1,0,–,0,0,1,0,–,1,–,–,1,1,0,0,0,"Growth Rate [3, 12]: 1"
CC(=O)N1CCC(c2ccc(C(=O)NC(=N)N)cc2C(F)(F)F)CC1 [BI 9627],0,–,1,1,1,–,–,1,1,1,0,0,0,–,1,–,–,1,0,1,"Growth Rate [2, 11]: 0; Growth Rate [2, 5]: 1; Growth Rate [3, 11]: 1; Growth Rate [3, 9]: 0"
N#Cc1c[nH]c2c(C(=O)N3CCN(CCc4ccc(F)cc4)CC3)cccc12 [PRUVANSERIN],–,0,0,0,0,1,0,1,0,0,0,–,0,0,–,0,1,0,0,0,–
CN1CCN(c2cnc3c(C4CCN(C(=O)c5ccc(OC(F)(F)F)cc5N)CC4)ncnc3c2)CC1 [BAY-885],0,–,–,–,–,0,1,0,0,0,1,1,0,1,–,1,1,0,1,0,"Growth Rate [1, 13]: 1; Growth Rate [2, 5]: 0; Growth Rate [2, 13]: 1; Growth Rate [3, 11]: 0; Growth Rate [3, 13]: 1"
N[C@@H](Cc1cc(I)c(Oc2ccc(O)c(I)c2)c(I)c1)C(=O)O [LIOTHYRONINE],0,1,1,1,1,0,1,1,1,1,0,1,0,–,–,–,–,0,0,0,"Growth Rate [1, 12]: 0; Growth Rate [1, 10]: 0; Growth Rate [1, 13]: 0; Growth Rate [3, 13]: 1"
